Row | melting point | SMILES
1 | 134 to 136 °C | CN1CCCC1=NC(=O)Nc1c(Cl)cccc1Cl
2 | 123 °C | NS(=O)(=O)c1cccc(C(=O)Cl)c1
3 | 108 to 110 °C | CCOC(=O)C(Cl)=Cc1ccc([N+](=O)[O-])cc1
4 | 105 to 106 °C | CCOC(=O)Cc1ccccc1NC(=O)c1sc2ccc(OC)cc2c1OC(C)C
5 | 122 to 125 °C | CC1=CC(OCc2ccccc2)(OC(=O)c2ccc(Br)c(OCCn3cnnn3)c2C)N(C)N1 (stereo unspecified)
6 | 188 °C | O=C1CCCN1[C@H]1CC[C@@H](C(=O)O)CC1
7 | 193 to 194 °C | O=C(c1ccccc1)c1ccc(OCCc2c[nH]cn2)cc1
8 | 240 to 242 °C | O=C1CCC(N2Cc3c(OCc4ccc(CN5CCOCC5)c(Cl)c4)cccc3C2=O)C(=O)N1 (stereo unspecified)
9 | 174 to 175 °C | c1ccc(Nc2nc(N3CCN(c4ccccc4)CC3)nc3c2SCC3)cc1
10 | 270 to 271 °C | CC(C)(C)NS(=O)(=O)c1cccc(-c2ccc3cnc(Nc4ccc(=O)[nH]c4)nn23)c1
11 | 180 to 182 °C | COc1cc(Nc2c(C#N)cnc3cc(-c4ccc(CN5CCC[C@@H]5C(N)=O)cc4)ccc23)c(Cl)cc1Cl
12 | 84 to 86 °C | CCc1c(Oc2ncc(C(F)(F)F)cc2Cl)nn(C(=O)NC)c1C
13 | 273 to 275 °C | CS(=O)(=O)c1ccc(-c2c(-c3ccccc3)[nH]c3ccc(Cl)cc23)cc1
14 | 224 to 226 °C | COc1ccc2c(c1)C1=C(SCC3(CCNCC3)O1)C(=O)C2=O
15 | 231 to 232 °C | CC(=O)OC(C)c1ccc2occ(-c3nnn[nH]3)c(=O)c2c1 (stereo unspecified)
16 | 97 to 99 °C | Cc1ccccc1C1CN(C(=O)OC(C)(C)C)CCC1=O (stereo unspecified)
17 | 65 to 67 °C | COc1ccc(-n2ccc3ccccc32)cc1F
18 | 77 to 79 °C | O=C(O)CC1(O)CC(CCCCCCc2ccc(Cl)cc2Cl)OC1=O (stereo unspecified)
19 | 143 °C | Cc1cc(Oc2ccc([N+](=O)[O-])cc2)c2ncccc2c1
20 | 117 to 118 °C | CC(=O)NCCc1ccc(CN2CCN(c3ccccc3)CC2)cc1

Row | melting point | SMILES
21 | 133 to 135 °C | CCc1ccc(Nc2nnc(Cc3ccnc(OC)c3)c3ccccc23)cc1Br
22 | 146 to 148 °C | CCOC(=O)c1sc(N2CCN(CC3CC3(F)F)C2=O)nc1C (stereo unspecified)
23 | 73 to 75 °C | COC(=O)C(CNC(C)=O)C1CCC(C(C)(C)C)CC1 (stereo unspecified)
24 | 98 to 100 °C | CC(=O)c1ccc(C(=O)N2Cc3cccn3Cc3ccccc32)c(Cl)c1
25 | 176 to 177 °C | CC(c1ccc(-c2ccccc2)c(F)c1)c1csc(NC(=S)Nc2ccccc2)n1 (stereo unspecified)
26 | 152 to 154 °C | CCC(CC)n1cc(Br)nc(N2CCc3cc(OC)cc(C)c32)c1=O
27 | 116 to 118 °C | Nc1nc(-c2ccc(Cl)cc2)c(CCC(=O)O)s1
28 | 120 to 121 °C | COc1sc(S(=O)(=O)C[N+](=O)[O-])cc1Br
29 | 145 to 146 °C | CCCCS(=O)C1CC(=O)N1CC(=O)CCc1ccccc1 (stereo unspecified)
30 | 117 to 118 °C | CCOC(=O)CS(=O)(=O)c1ccc(C=C(C)c2ccc3c(c2)C(C)(C)CCC3(C)C)cc1
31 | 329 to 330 °C | O=C(c1ccccc1)c1c[nH]c(=O)[nH]1
32 | 205 to 206 °C | COCOc1ccc(Cl)cc1-c1cc(-c2cccc([N+](=O)[O-])c2)c(C#N)c(NC(=O)c2ccccc2)n1
33 | 75 to 78 °C | CCn1c(=O)oc2ccc(Cl)cc21
34 | 52 to 54 °C | CCCCCCCCCCCCCCCCCCOc1ccc(OCc2ccccc2)c(C(=O)OC)c1
35 | 161 to 162 °C | CCCN(C(=O)OCC(C)C)C1Cc2ccc(C3=NNC(=O)CC3)cc2C1 (stereo unspecified)
36 | 157 to 159 °C | CC(C)N1CC2(COc3ccc(N)cc3OC2)OC1=O (stereo unspecified)
37 | 84 to 87 °C | CSC1CC(=O)N1CC(=O)NCc1ccccc1 (stereo unspecified)
38 | 126 to 127 °C | Cc1cccc(NC(=O)CN2CCN(c3ccccn3)CC2)c1
39 | 262 to 264 °C | COc1ccc2[nH]c3c([N+](=O)[O-])ccc(Cl)c3c(=O)c2c1
40 | 128 to 130 °C | COc1ccc2oc3ccccc3c(=O)c2c1

Row | SMILES | melting point
41 | CCOc1cc(CCl)nc(C)n1 | 29 °C

Reference: a melting point compilation (Tetko et al.; mined from patent text by program, amines drawn as free bases though some values may be those of a salt)
